Patent US20260176320A1, “MODULATORS OF G-PROTEIN COUPLED RECEPTORS” (priority 2018, published 2026)
Like-named read-outs stand apart in the source and are kept apart here.

How the values were obtained:
Type in all cases: cell-based
GLP-1R [1] = target: T1, GLP-1R (Homo sapiens, UniProt P43220); test: HitHunter cAMP assay (GLP-1R); settings: cAMP; for Emax: read-out: (Emax) GLP-1R
Method in brief: (§1)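 Suspension cells expressing each receptor (10,000 per well) in HBSS with 10 mM HEPES, 625 μM IBMX and 0.2% BSA were treated with a 22-point 2-fold agonist series in duplicate for 30 minutes at room temperature. cAMP was detected by antibody immunocompetition with luminescence read after overnight incubation.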

GIP-R = target: T2, GIP-R (Homo sapiens, UniProt P48546); test: HitHunter cAMP assay (GIP-R); settings: cAMP; for Emax: read-out: (Emax) GIP-R
T2 sequence (P48546 22-466): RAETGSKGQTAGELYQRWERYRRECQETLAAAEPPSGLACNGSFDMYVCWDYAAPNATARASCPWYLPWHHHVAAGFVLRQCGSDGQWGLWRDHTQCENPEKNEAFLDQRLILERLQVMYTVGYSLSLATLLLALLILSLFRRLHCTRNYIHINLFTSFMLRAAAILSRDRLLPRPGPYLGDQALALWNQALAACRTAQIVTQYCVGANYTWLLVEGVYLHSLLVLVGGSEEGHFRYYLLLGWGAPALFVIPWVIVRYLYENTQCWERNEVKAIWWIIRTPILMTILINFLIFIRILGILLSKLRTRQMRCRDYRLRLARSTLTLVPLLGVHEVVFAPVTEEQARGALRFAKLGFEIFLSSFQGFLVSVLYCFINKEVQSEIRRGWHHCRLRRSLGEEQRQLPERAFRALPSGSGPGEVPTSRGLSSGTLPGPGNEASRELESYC
Method in brief: as §1

GLP-1R [2] = target: T1, GLP-1R; test: PathHunter β-arrestin assay
Method in brief: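 Cells seeded overnight, then medium replaced with medium containing 0.2% BSA; agonists added as 22-point 2-fold DMSO dilution series in duplicate and incubated 90 min at 37 °C, 5% CO2. After addition of detection solution, plates sat 3 h at room temperature in the dark; luminescence read.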

[3] = Table 3, read-out: EC50 GLP-1R/nM
[4] = Table 3A, read-out: EC50 GLP-1R/nM
[5] = Table 3, read-out: EC50 GIP-R/nM
[6] = Table 3A, read-out: EC50 GIP-R/nM
[7] = PathHunter β-arrestin assay, read-out: β-arrestin activity EC50

T1 sequence (P43220 24-463): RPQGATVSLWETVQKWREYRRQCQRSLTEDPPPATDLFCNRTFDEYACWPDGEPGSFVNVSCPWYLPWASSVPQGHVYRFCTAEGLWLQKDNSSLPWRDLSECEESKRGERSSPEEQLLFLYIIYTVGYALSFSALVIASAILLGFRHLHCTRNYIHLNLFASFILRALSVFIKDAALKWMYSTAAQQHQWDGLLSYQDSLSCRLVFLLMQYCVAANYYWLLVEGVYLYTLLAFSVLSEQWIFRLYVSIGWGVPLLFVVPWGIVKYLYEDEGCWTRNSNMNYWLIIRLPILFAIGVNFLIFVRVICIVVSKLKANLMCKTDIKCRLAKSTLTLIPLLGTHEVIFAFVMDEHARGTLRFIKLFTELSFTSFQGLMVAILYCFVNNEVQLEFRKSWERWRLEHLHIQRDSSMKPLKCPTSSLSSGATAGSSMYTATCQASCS

Compound | Emax (GLP-1R [1]; Table 3) [%] | EC50 (GLP-1R [1]; [3]) [nM] | Emax (GLP-1R [1]; Table 3A) [%] | EC50 (GLP-1R [1]; [4]) [nM] | Emax (GIP-R; Table 3) [%] | EC50 (GIP-R; [5]) [nM] | Emax (GIP-R; Table 3A) [%] | EC50 (GIP-R; [6]) [nM] | EC50 (GLP-1R [2]; [7]) [nM] | EC50 (GLP-1R [1]; EC50 GLP-1R/nM, Table 3) [nM] | EC50 (GLP-1R [1]; EC50 GLP-1R/nM, Table 3A) [nM] | EC50 (GIP-R; EC50 GIP-R/nM, Table 3) [nM] | EC50 (GIP-R; EC50 GIP-R/nM, Table 3A) [nM] | EC50 (GLP-1R [2]) [nM] | EC50 (GIP-R; read-out: EC50 GIP-R/nM, Table 3) [nM] | EC50 (GIP-R; read-out: EC50 GIP-R/nM, Table 3A) [nM]
CC[C@H](C)[C@H](NC(=O)[C@H](CO)NC(=O)[C@H](Cc1ccc(O)cc1)NC(=O)[C@H](CC(=O)O)NC(=O)[C@H](CO)NC(=O)[C@@H](NC(=O)[C@H](Cc1ccccc1)NC(=O)[C@@H](NC(=O)CNC(=O)[C@H](CCC(=O)O)NC(=O)CCNC(=O)NCCN1C(=O)CSC1=O)[C@@H](C)O)[C@@H](C)O)C(=O)N[C@@H](Cc1ccc(O)cc1)C(=O)N[C@@H](CC(C)C)C(=O)N[C@@H](CC(=O)O)C(=O)N[C@@H](CCCCN)C(=O)N[C@@H](CCC(N)=O)C(=O)N[C@@H](C)C(=O)N[C@@H](C)C(=O)NC(C)(C)C(=O)N[C@@H](CCC(=O)O)C(=O)N[C@@H](Cc1ccccc1)C(=O)N[C@H](C(=O)N[C@@H](CC(N)=O)C(=O)N[C@@H](Cc1c[nH]c2ccccc12)C(=O)N[C@@H](CC(C)C)C(=O)N[C@@H](CC(C)C)C(=O)N[C@@H](C)C(=O)NCC(=O)NCC(=O)N1CCC[C@H]1C(=O)N[C@@H](CO)C(=O)N[C@@H](CO)C(=O)NCC(=O)N[C@@H](C)C(=O)N1CCC[C@H]1C(=O)N1CCC[C@H]1C(=O)N1CCC[C@H]1C(=O)N[C@@H](CO)C(=O)N[C@@H](CCCCN)C(N)=O)C(C)C [Compound 148] | 99 | 0.1 to 1 | 99 | 0.1 to 1 | 64 to 67 | 1 to 10 | 64 to 67 | 1 to 10 | > 1000 | – | – | – | – | – | – | –
CC[C@H](C)[C@H](NC(=O)[C@H](CO)NC(=O)[C@H](Cc1ccc(O)cc1)NC(=O)[C@H](CC(=O)O)NC(=O)[C@H](CO)NC(=O)[C@@H](NC(=O)[C@H](Cc1ccccc1)NC(=O)[C@@H](NC(=O)CNC(=O)[C@H](CCC(=O)O)NC(=O)CSCC(=O)NCCN1C(=O)CSC1=O)[C@@H](C)O)[C@@H](C)O)C(=O)N[C@@H](Cc1ccc(O)cc1)C(=O)N[C@@H](CC(C)C)C(=O)N[C@@H](CC(=O)O)C(=O)N[C@@H](CCCCN)C(=O)N[C@@H](CCC(N)=O)C(=O)N[C@@H](C)C(=O)N[C@@H](C)C(=O)NC(C)(C)C(=O)N[C@@H](CCC(=O)O)C(=O)N[C@@H](Cc1ccccc1)C(=O)N[C@H](C(=O)N[C@@H](CC(N)=O)C(=O)N[C@@H](Cc1c[nH]c2ccccc12)C(=O)N[C@@H](CC(C)C)C(=O)N[C@@H](CC(C)C)C(=O)N[C@@H](C)C(=O)NCC(=O)NCC(=O)N1CCC[C@H]1C(=O)N[C@@H](CO)C(=O)N[C@@H](CO)C(=O)NCC(=O)N[C@@H](C)C(=O)N1CCC[C@H]1C(=O)N1CCC[C@H]1C(=O)N1CCC[C@H]1C(=O)N[C@@H](CO)C(=O)N[C@@H](CCCCN)C(N)=O)C(C)C [Compound 196] | 93 to 104 | 0.1 to 10 | 93 to 104 | 0.1 to 10 | 41 to 86 | 1 to 100 | 41 to 86 | 1 to 100 | > 1000 | – | – | – | – | – | – | –
CCCCCCCCCCCCCCCC(=O)N[C@@H](CCC(=O)NCCCC[C@H](NC(=O)[C@H](CO)NC(=O)[C@@H]1CCCN1C(=O)[C@@H]1CCCN1C(=O)[C@@H]1CCCN1C(=O)[C@H](C)NC(=O)CNC(=O)[C@H](CO)NC(=O)[C@H](CO)NC(=O)[C@@H]1CCCN1C(=O)CNC(=O)CNC(=O)[C@H](C)NC(=O)[C@H](CC(C)C)NC(=O)[C@H](CC(C)C)NC(=O)[C@H](Cc1c[nH]c2ccccc12)NC(=O)[C@H](CC(N)=O)NC(=O)[C@@H](NC(=O)[C@H](Cc1ccccc1)NC(=O)[C@H](CCC(=O)O)NC(=O)C(C)(C)NC(=O)[C@H](C)NC(=O)[C@H](C)NC(=O)[C@H](CCC(N)=O)NC(=O)[C@H](CCCCN)NC(=O)[C@H](CC(=O)O)NC(=O)[C@H](CC(C)C)NC(=O)[C@H](Cc1ccc(O)cc1)NC(=O)[C@@H](NC(=O)[C@H](CO)NC(=O)[C@H](Cc1ccc(O)cc1)NC(=O)[C@H](CC(=O)O)NC(=O)[C@H](CO)NC(=O)[C@@H](NC(=O)[C@H](Cc1ccccc1)NC(=O)[C@@H](NC(=O)CNC(=O)[C@H](CCC(=O)O)NC(=O)CSCC(=O)NCCN1CC[C@@H](OC)C1=O)[C@@H](C)O)[C@@H](C)O)[C@@H](C)CC)C(C)C)C(N)=O)C(=O)O [Compound 11] | 96 | – | 96 | – | 39 | – | 39 | – | – | 0.1 to 1 | 0.1 to 1 | 1 to 10 | 1 to 10 | > 1000 | – | –
CC[C@H](C)[C@H](NC(=O)[C@H](CO)NC(=O)[C@H](Cc1ccc(O)cc1)NC(=O)[C@H](CC(=O)O)NC(=O)[C@H](CO)NC(=O)[C@@H](NC(=O)[C@H](Cc1ccccc1)NC(=O)[C@@H](NC(=O)CNC(=O)[C@H](CCC(=O)O)NC(=O)CC(=O)NCCCN1C(=O)c2ccc(C)cc2C1=O)[C@@H](C)O)[C@@H](C)O)C(=O)N[C@@H](Cc1ccc(O)cc1)C(=O)N[C@@H](CC(C)C)C(=O)N[C@@H](CC(=O)O)C(=O)N[C@@H](CCCCN)C(=O)N[C@@H](CCC(N)=O)C(=O)N[C@@H](C)C(=O)N[C@@H](C)C(=O)NC(C)(C)C(=O)N[C@@H](CCC(=O)O)C(=O)N[C@@H](Cc1ccccc1)C(=O)N[C@H](C(=O)N[C@@H](CC(N)=O)C(=O)N[C@@H](Cc1c[nH]c2ccccc12)C(=O)N[C@@H](CC(C)C)C(=O)N[C@@H](CC(C)C)C(=O)N[C@@H](C)C(=O)NCC(=O)NCC(=O)N1CCC[C@H]1C(=O)N[C@@H](CO)C(=O)N[C@@H](CO)C(=O)NCC(=O)N[C@@H](C)C(=O)N1CCC[C@H]1C(=O)N1CCC[C@H]1C(=O)N1CCC[C@H]1C(=O)N[C@@H](CO)C(=O)N[C@@H](CCCCN)C(N)=O)C(C)C [Compound 128] | 99 | – | 99 | – | 68 | – | 68 | – | – | 1 to 10 | 1 to 10 | – | – | > 1000 | 1 to 100 | 1 to 100
CC[C@H](C)[C@H](NC(=O)[C@H](CO)NC(=O)[C@H](Cc1ccc(O)cc1)NC(=O)[C@H](CC(=O)O)NC(=O)[C@H](CO)NC(=O)[C@@H](NC(=O)[C@H](Cc1ccccc1)NC(=O)[C@@H](NC(=O)CNC(=O)[C@H](CCC(=O)O)NC(=O)CSCC(=O)NCCCCN1C(=O)CSC1=O)[C@@H](C)O)[C@@H](C)O)C(=O)N[C@@H](Cc1ccc(O)cc1)C(=O)N[C@@H](CC(C)C)C(=O)N[C@@H](CC(=O)O)C(=O)N[C@@H](CCCCN)C(=O)N[C@@H](CCC(N)=O)C(=O)N[C@@H](C)C(=O)N[C@@H](C)C(=O)NC(C)(C)C(=O)N[C@@H](CCC(=O)O)C(=O)N[C@@H](Cc1ccccc1)C(=O)N[C@H](C(=O)N[C@@H](CC(N)=O)C(=O)N[C@@H](Cc1c[nH]c2ccccc12)C(=O)N[C@@H](CC(C)C)C(=O)N[C@@H](CC(C)C)C(=O)N[C@@H](C)C(=O)NCC(=O)NCC(=O)N1CCC[C@H]1C(=O)N[C@@H](CO)C(=O)N[C@@H](CO)C(=O)NCC(=O)N[C@@H](C)C(=O)N1CCC[C@H]1C(=O)N1CCC[C@H]1C(=O)N1CCC[C@H]1C(=O)N[C@@H](CO)C(=O)N[C@@H](CCCCN)C(N)=O)C(C)C [Compound 184] | 99 | – | 99 | – | 43 | – | 43 | – | – | 1 to 10 | 1 to 10 | 10 to 100 | 10 to 100 | > 1000 | – | –
